According to PubChem BioAssay AID328 (DTP/NCI, 2004):
Where “and” joins values, the source holds several entries; their conditions need not be identical. Equal values may be shown once. Toxic doses and inconclusive results are not listed.

Tested on: BDF1 mice, P388 leukemia ip, median survival T/C
Experiment: NCI In Vivo Anticancer Drug Screen. Data for tumor model P388 Leukemia (intraperitoneal) in B6D2F1 (BDF1) mice
Details: endpoint: median survival time, higher = longer survival
In short: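 Compound-treated tumour-bearing mice were compared with vehicle-treated controls. Survival was recorded, and the value is the treated-group measurement divided by the control-group measurement (T/C).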

[1] = dose: 75.0 mg/kg/injection, schedule: Q04DX003 (ip), vehicle: saline
[2] = dose: 150.0 mg/kg/injection, schedule: Q04DX003 (ip), vehicle: saline
[3] = dose: 300.0 mg/kg/injection, schedule: Q04DX003 (ip), vehicle: saline

## NS(=O)(=O)c1ccc(Cl)cc1
dose: 25.0 mg/kg/injection, schedule: Q01DX009 (ip), vehicle: saline
  T/C: 113 % of control
dose: 50.0 mg/kg/injection, schedule: Q01DX009 (ip), vehicle: saline
  T/C: 109 % of control
[1]
  T/C: 100 % of control
dose: 100.0 mg/kg/injection, schedule: Q01DX009 (ip), vehicle: saline
  T/C: 86 % of control
[2]
  T/C: 109 % of control
[3]
  T/C: 109 % of control

## CCOC(=O)c1cnn(C(N)=S)c1N
dose: 50.0 mg/kg/injection, schedule: Q01DX009 (ip), vehicle: saline with Tween-80
  T/C: 90 % of control
dose: 50.0 mg/kg/injection, schedule: Q04DX003 (ip), vehicle: saline with Tween-80
  T/C: 104 % of control
dose: 66.0 mg/kg/injection, schedule: Q04DX003 (ip), vehicle: saline with Tween-80
  T/C: 104 % of control
dose: 100.0 mg/kg/injection, schedule: Q04DX003 (ip), vehicle: saline with Tween-80
  T/C: 90 % of control and 104 % of control
dose: 150.0 mg/kg/injection, schedule: Q04DX003 (ip), vehicle: saline with Tween-80
  T/C: 90 % of control
dose: 200.0 mg/kg/injection, schedule: Q04DX003 (ip), vehicle: saline with Tween-80
  T/C: 100 % of control

## OCCCN1CCCCC1CO (stereo unspecified)
dose: 200.0 mg/kg/injection, schedule: Q01DX009 (ip), vehicle: saline
  T/C: 165 % of control

## Cc1ccc(S(=O)(=O)N/N=C/c2ccncc2)cc1
dose: 12.5 mg/kg/injection, schedule: Q01DX009 (ip), vehicle: other
  T/C: 110 % of control
dose: 25.0 mg/kg/injection, schedule: Q01DX009 (ip), vehicle: other
  T/C: 117 % of control
dose: 50.0 mg/kg/injection, schedule: Q01DX009 (ip), vehicle: other
  T/C: 119 % of control
dose: 200.0 mg/kg/injection, schedule: Q01DX009 (ip), vehicle: other
  T/C: 155 % of control

## [Ni+2].[SH2+]C([SH2+])=Nc1ccccc1.[SH2+]C([SH2+])=Nc1ccccc1.c1ccc(C[P+](c2ccccc2)(c2ccccc2)c2ccccc2)cc1
dose: 0.5 mg/kg/injection, schedule: Q01DX009 (ip), vehicle: saline
  T/C: 115 % of control
dose: 1.0 mg/kg/injection, schedule: Q01DX009 (ip), vehicle: saline
  T/C: 95 % of control and 120 % of control
dose: 1.0 mg/kg/injection, schedule: Q04DX003 (ip), vehicle: other
  T/C: 95 % of control
dose: 3.0 mg/kg/injection, schedule: Q01DX009 (ip), vehicle: saline
  T/C: 118 % of control and 120 % of control
dose: 3.0 mg/kg/injection, schedule: Q04DX003 (ip), vehicle: other
  T/C: 108 % of control
dose: 4.0 mg/kg/injection, schedule: Q01DX009 (ip), vehicle: saline
  T/C: 100 % of control
dose: 6.0 mg/kg/injection, schedule: Q01DX009 (ip), vehicle: saline
  T/C: 104 % of control and 105 % of control
dose: 6.0 mg/kg/injection, schedule: Q04DX003 (ip), vehicle: other
  T/C: 95 % of control
dose: 9.0 mg/kg/injection, schedule: Q01DX009 (ip), vehicle: saline
  T/C: 110 % of control and 118 % of control
dose: 10.0 mg/kg/injection, schedule: Q01DX009 (ip), vehicle: Klucel (hydroxypropylcellulose) (HPC)
  T/C: 115 % of control

## Cc1ccnc(NC(=O)Nc2ccccc2F)c1
dose: 100.0 mg/kg/injection, schedule: Q01DX001 (ip), vehicle: Klucel (hydroxypropylcellulose) (HPC)
  T/C: 90 % of control
dose: 200.0 mg/kg/injection, schedule: Q01DX001 (ip), vehicle: Klucel (hydroxypropylcellulose) (HPC)
  T/C: 95 % of control
dose: 400.0 mg/kg/injection, schedule: Q01DX001 (ip), vehicle: Klucel (hydroxypropylcellulose) (HPC)
  T/C: 105 % of control

## C=C(Br)COCC
dose: 5.78 mg/kg/injection, schedule: Q01DX001 (ip), vehicle: saline
  T/C: 95 % of control
dose: 11.56 mg/kg/injection, schedule: Q01DX001 (ip), vehicle: saline
  T/C: 113 % of control
dose: 13.75 mg/kg/injection, schedule: Q04DX003 (ip), vehicle: saline
  T/C: 95 % of control
dose: 23.12 mg/kg/injection, schedule: Q01DX001 (ip), vehicle: saline
  T/C: 104 % of control
dose: 27.5 mg/kg/injection, schedule: Q04DX003 (ip), vehicle: saline
  T/C: 109 % of control
dose: 35.0 mg/kg/injection, schedule: Q01DX009 (ip), vehicle: saline
  T/C: 100 % of control
dose: 46.25 mg/kg/injection, schedule: Q01DX001 (ip), vehicle: saline
  T/C: 100 % of control
dose: 55.0 mg/kg/injection, schedule: Q01DX009 (ip), vehicle: saline
  T/C: 109 % of control
dose: 55.0 mg/kg/injection, schedule: Q04DX003 (ip), vehicle: saline
  T/C: 90 % of control
dose: 80.0 mg/kg/injection, schedule: Q04DX003 (ip), vehicle: saline
  T/C: 110 % of control
dose: 92.5 mg/kg/injection, schedule: Q01DX001 (ip), vehicle: saline
  T/C: 113 % of control
dose: 125.0 mg/kg/injection, schedule: Q04DX003 (ip), vehicle: saline
  T/C: 100 % of control
dose: 185.0 mg/kg/injection, schedule: Q04DX003 (ip), vehicle: saline
  T/C: 100 % of control

## N#CC(c1ccccc1)C1CCCCC1 (stereo unspecified)
[1]
  T/C: 111 % of control
[2]
  T/C: 107 % of control
[3]
  T/C: 115 % of control
